For 24 molecules, viability and Activity results are on record in ChEMBL document CHEMBL4052687, “Synthesis of MeON-neoglycosides of digoxigenin with 6-deoxy- and 2,6-dideoxy-d-glucose derivatives and their anticancer activity” (2017).

Test [1] concerns NCI-H460. Put plainly: Cytotoxicity in human NCI-H460 cells assessed as cell viability at 50 nM incubated for 48 hrs by MTT assay. The note with it: NCI-H460, 48 h, read-out: Activity. Type of test: functional. (Tetrazolium assays rely on reduction of a dye to a coloured formazan, in cell work by metabolically active cells.)
Test [2] addresses Nuclear receptor subfamily 4immunitygroup A member 1 (Homo sapiens) (UniProt P22736). Briefly: Induction of Nur77 protein translocation from nucleus to cytoplasm in human NCI-H460 cells at 20 nM incubated for 3 hrs by immunofluorescence microscopy. Type of test: cell-based.
Test [3] has as its system NCI-H460. Briefly: Induction of Nur77 protein expression in human NCI-H460 cells at 20 nM incubated for 3 hrs by Western blot method relative to digoxin. The test is classed as functional, cell-based.

The structures appear in SMILES notation. Active and inactive are the calls of the source. No cut-off for these calls is given here.

Chain of Nuclear receptor subfamily 4immunitygroup A member 1 (Homo sapiens) (P22736 whole entry): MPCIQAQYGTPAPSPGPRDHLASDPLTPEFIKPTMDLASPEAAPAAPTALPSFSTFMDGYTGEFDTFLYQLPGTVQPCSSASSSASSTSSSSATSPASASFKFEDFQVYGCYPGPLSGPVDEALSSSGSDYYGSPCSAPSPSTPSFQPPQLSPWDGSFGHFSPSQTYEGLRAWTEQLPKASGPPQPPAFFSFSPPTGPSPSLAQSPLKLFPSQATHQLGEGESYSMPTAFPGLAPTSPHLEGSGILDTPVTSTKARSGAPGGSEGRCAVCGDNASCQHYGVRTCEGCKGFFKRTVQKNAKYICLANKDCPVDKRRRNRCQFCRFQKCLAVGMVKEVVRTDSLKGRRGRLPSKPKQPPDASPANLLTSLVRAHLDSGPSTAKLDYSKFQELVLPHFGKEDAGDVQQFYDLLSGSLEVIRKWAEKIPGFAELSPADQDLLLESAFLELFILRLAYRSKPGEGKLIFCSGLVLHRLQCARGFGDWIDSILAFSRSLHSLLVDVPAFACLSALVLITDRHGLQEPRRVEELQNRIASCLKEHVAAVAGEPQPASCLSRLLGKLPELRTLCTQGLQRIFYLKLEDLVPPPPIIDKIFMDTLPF

Consider `CO[C@@H]1[C@@H](O)[C@H](OC)[C@@H](C)O[C@H]1N(OC)[C@@H]1CC[C@@]2(C)[C@H](CC[C@@H]3[C@@H]2C[C@@H](O)[C@]2(C)[C@@H](C4=CC(=O)OC4)CC[C@]32O)C1`, for which, in test [1], the viability at 0.05 µM is greater than 90%. Also, the result in test [2] was Active.
For `CO[C@@H]1[C@@H](O)[C@H](O)[C@@H](C)O[C@H]1N(OC)[C@H]1CC[C@@]2(C)[C@H](CC[C@@H]3[C@@H]2C[C@@H](O)[C@]2(C)[C@@H](C4=CC(=O)OC4)CC[C@]32O)C1`, in test [1], the viability at 0.05 µM is greater than 90%.
In the case of `CO[C@@H]1[C@@H](O)[C@H](OC)[C@@H](C)O[C@H]1N(OC)[C@H]1CC[C@@]2(C)[C@H](CC[C@@H]3[C@@H]2C[C@@H](O)[C@]2(C)[C@@H](C4=CC(=O)OC4)CC[C@]32O)C1`, the result in test [3] and in test [2] was Active. Moreover, in test [1], the viability at 0.05 µM was greater than 90%.
Turning to `CO[C@H]1[C@H](O)[C@@H](O)[C@H](N(OC)[C@H]2CC[C@@]3(C)[C@H](CC[C@@H]4[C@@H]3C[C@@H](O)[C@]3(C)[C@@H](C5=CC(=O)OC5)CC[C@]43O)C2)O[C@@H]1C`, in test [1], the viability at 0.05 µM was greater than 90%.
Same read-out and setting: the result for `CON([C@H]1CC[C@@]2(C)[C@H](CC[C@@H]3[C@@H]2C[C@@H](O)[C@]2(C)[C@@H](C4=CC(=O)OC4)CC[C@]32O)C1)[C@@H]1O[C@H](C)[C@@H](O)[C@H](O)[C@H]1O` reads greater than 90%; that for `CO[C@@H]1[C@@H](C)O[C@@H](N(OC)[C@@H]2CC[C@@]3(C)[C@H](CC[C@@H]4[C@@H]3C[C@@H](O)[C@]3(C)[C@@H](C5=CC(=O)OC5)CC[C@]43O)C2)C[C@H]1OC`, greater than 90%; that for `CO[C@@H]1C[C@H](N(OC)[C@H]2CC[C@@]3(C)[C@H](CC[C@@H]4[C@@H]3C[C@@H](O)[C@]3(C)[C@@H](C5=CC(=O)OC5)CC[C@]43O)C2)O[C@H](C)[C@H]1O`, greater than 90%.
The same measure, in the same setting: the result for `CO[C@@H]1[C@@H](OC)[C@H](O)[C@@H](C)O[C@H]1N(OC)[C@H]1CC[C@@]2(C)[C@H](CC[C@@H]3[C@@H]2C[C@@H](O)[C@]2(C)[C@@H](C4=CC(=O)OC4)CC[C@]32O)C1` reads greater than 90%.
As to `CO[C@@H]1[C@@H](O)[C@H](O)[C@@H](C)O[C@H]1N(OC)[C@@H]1CC[C@@]2(C)[C@H](CC[C@@H]3[C@@H]2C[C@@H](O)[C@]2(C)[C@@H](C4=CC(=O)OC4)CC[C@]32O)C1`, the result in test [3] was Active. Also, the viability at 0.05 µM in test [1] is greater than 90%.
`CON([C@H]1CC[C@@]2(C)[C@H](CC[C@@H]3[C@@H]2C[C@@H](O)[C@]2(C)[C@@H](C4=CC(=O)OC4)CC[C@]32O)C1)[C@@H]1O[C@H](CO)[C@@H](O)[C@H](O)[C@H]1O`: the viability at 0.05 µM in test [1] was greater than 90%.
As to `CO[C@@H]1C[C@H](N(OC)[C@@H]2CC[C@@]3(C)[C@H](CC[C@@H]4[C@@H]3C[C@@H](O)[C@]3(C)[C@@H](C5=CC(=O)OC5)CC[C@]43O)C2)O[C@H](C)[C@H]1O`, the viability at 0.05 µM in test [1] is greater than 90%. For the same molecule, the result in test [2] was Active.
On to `CO[C@@H]1[C@@H](O)[C@H](N(OC)[C@H]2CC[C@@]3(C)[C@H](CC[C@@H]4[C@@H]3C[C@@H](O)[C@]3(C)[C@@H](C5=CC(=O)OC5)CC[C@]43O)C2)O[C@H](C)[C@H]1O`, for which the viability at 0.05 µM in test [1] is greater than 90%. Moreover, the result in test [2] was Active.
Turning to `CO[C@H]1[C@H](O)[C@@H](O)[C@H](N(OC)[C@@H]2CC[C@@]3(C)[C@H](CC[C@@H]4[C@@H]3C[C@@H](O)[C@]3(C)[C@@H](C5=CC(=O)OC5)CC[C@]43O)C2)O[C@@H]1C`, in test [1], the viability at 0.05 µM is greater than 90%.
In the case of `CON([C@@H]1CC[C@@]2(C)[C@H](CC[C@@H]3[C@@H]2C[C@@H](O)[C@]2(C)[C@@H](C4=CC(=O)OC4)CC[C@]32O)C1)[C@H]1O[C@@H](CO)[C@H](O)[C@@H](O)[C@@H]1O`, the result in test [3] was Active. Besides, the viability at 0.05 µM in test [1] was greater than 90%.
Consider `CO[C@@H]1[C@@H](C)O[C@@H](N(OC)[C@H]2CC[C@@]3(C)[C@H](CC[C@@H]4[C@@H]3C[C@@H](O)[C@]3(C)[C@@H](C5=CC(=O)OC5)CC[C@]43O)C2)C[C@H]1OC`, for which the viability at 0.05 µM in test [1] is greater than 90%.
Turning to `CON([C@H]1CC[C@@]2(C)[C@H](CC[C@@H]3[C@@H]2C[C@@H](O)[C@]2(C)[C@@H](C4=CC(=O)OC4)CC[C@]32O)C1)[C@H]1O[C@@H](CO)[C@H](O)[C@@H](O)[C@@H]1O`, the outcome in test [3] and in test [2] was Active. In addition, in test [1], the viability at 0.05 µM was greater than 90%.
Consider `CO[C@@H]1[C@@H](O)[C@H](N(OC)[C@@H]2CC[C@@]3(C)[C@H](CC[C@@H]4[C@@H]3C[C@@H](O)[C@]3(C)[C@@H](C5=CC(=O)OC5)CC[C@]43O)C2)O[C@H](C)[C@H]1OC`, for which the viability at 0.05 µM in test [1] is greater than 90%. Further, the outcome in test [2] was Active.
Take `CON[C@H]1CC[C@@]2(C)[C@H](CC[C@@H]3[C@@H]2C[C@@H](O)[C@]2(C)[C@@H](C4=CC(=O)OC4)CC[C@]32O)C1`: in test [3], the outcome was inactive.
Consider `CON([C@@H]1CC[C@@]2(C)[C@H](CC[C@@H]3[C@@H]2C[C@@H](O)[C@]2(C)[C@@H](C4=CC(=O)OC4)CC[C@]32O)C1)[C@@H]1O[C@H](C)[C@@H](O)[C@H](O)[C@H]1O`, for which the result in test [3] was Active. Moreover, the viability at 0.05 µM in test [1] was greater than 90%.
In the case of `CON([C@@H]1CC[C@@]2(C)[C@H](CC[C@@H]3[C@@H]2C[C@@H](O)[C@]2(C)[C@@H](C4=CC(=O)OC4)CC[C@]32O)C1)[C@@H]1O[C@H](CO)[C@@H](O)[C@H](O)[C@H]1O`, in test [1], the viability at 0.05 µM was greater than 90%. Moreover, in test [2], the outcome was Active.
As to `CO[C@@H]1[C@@H](O)[C@H](N(OC)[C@@H]2CC[C@@]3(C)[C@H](CC[C@@H]4[C@@H]3C[C@@H](O)[C@]3(C)[C@@H](C5=CC(=O)OC5)CC[C@]43O)C2)O[C@H](C)[C@H]1O`, the viability at 0.05 µM in test [1] was greater than 90%.
With `CON[C@@H]1CC[C@@]2(C)[C@H](CC[C@@H]3[C@@H]2C[C@@H](O)[C@]2(C)[C@@H](C4=CC(=O)OC4)CC[C@]32O)C1`, the outcome in test [3] was inactive.
As to `CO[C@@H]1[C@@H](OC)[C@H](O)[C@@H](C)O[C@H]1N(OC)[C@@H]1CC[C@@]2(C)[C@H](CC[C@@H]3[C@@H]2C[C@@H](O)[C@]2(C)[C@@H](C4=CC(=O)OC4)CC[C@]32O)C1`, in test [1], the viability at 0.05 µM is greater than 90%. In addition, the outcome in test [2] was Active.
In the case of `CO[C@@H]1[C@@H](O)[C@H](N(OC)[C@H]2CC[C@@]3(C)[C@H](CC[C@@H]4[C@@H]3C[C@@H](O)[C@]3(C)[C@@H](C5=CC(=O)OC5)CC[C@]43O)C2)O[C@H](C)[C@H]1OC`, the viability at 0.05 µM in test [1] was greater than 90%.
